Measured values published in ChEMBL document CHEMBL4265970, “2'-Aryl and 4'-arylidene substituted pyrazolones: As potential α-amylase inhibitors” (Eur J Med Chem, 2018).

How the values were obtained:
Alpha amylase [1] = target: T1, Alpha amylase (Homo sapiens, UniProt P0DUB6); test: Inhibition of alpha-amylase (unknown origin) using starch as substrate preincubated for 10 mins followed by substrate addition measured after 10 mins by dinitrosalicylic acid color reagent based assay
T1 sequence (P0DUB6 whole entry): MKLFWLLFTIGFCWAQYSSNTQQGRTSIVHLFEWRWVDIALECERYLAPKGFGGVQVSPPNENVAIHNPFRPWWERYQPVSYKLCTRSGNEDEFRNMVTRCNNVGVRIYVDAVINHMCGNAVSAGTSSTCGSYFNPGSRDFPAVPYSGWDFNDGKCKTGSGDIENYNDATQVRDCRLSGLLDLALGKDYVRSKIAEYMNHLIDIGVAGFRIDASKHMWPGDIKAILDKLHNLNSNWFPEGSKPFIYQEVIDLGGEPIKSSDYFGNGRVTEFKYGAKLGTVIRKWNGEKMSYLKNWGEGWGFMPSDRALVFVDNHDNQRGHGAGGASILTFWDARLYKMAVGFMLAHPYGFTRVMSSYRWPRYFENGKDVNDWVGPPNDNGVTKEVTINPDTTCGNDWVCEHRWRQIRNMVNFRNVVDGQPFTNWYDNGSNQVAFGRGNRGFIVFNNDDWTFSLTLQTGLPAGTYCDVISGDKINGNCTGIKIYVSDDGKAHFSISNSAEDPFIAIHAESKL

Alpha amylase [2] = target: T1, Alpha amylase; test: Mixed-type inhibition of alpha-amylase (unknown origin) using p-nitrophenylR-D-maltoside as substrate incubated for 30 mins at 1 min time interval
[3] = test system: CC1=NN(c2ccc(Cl)cc2)C(=O)/C1=C/c1cc(Cl)cc(Cl)c1O; test: (§1) Mixed-type inhibition of alpha-amylase (unknown origin) assessed as Vmax for substrate using p-nitrophenylR-D-maltoside as substrate incubated for 30 mins at 1 min time interval; details: Homo sapiens
[4] = test system: CC1=NN(c2ccc(Cl)cc2)C(=O)/C1=C/c1cc(F)ccc1Br; test: as §1; details: Homo sapiens
[5] = test system: CC1=NN(c2ccc(Cl)cc2)C(=O)/C1=C/c1ccc(Br)cc1; test: as §1; details: Homo sapiens
[6] = test system: COc1cc(/C=C2/C(=O)N(c3ccc(Cl)cc3)N=C2C)c(OC)cc1Br; test: as §1; details: Homo sapiens
[7] = test system: COc1cc(/C=C2/C(=O)N(c3ccc(Cl)cc3)N=C2C)cc(OC)c1Br; test: as §1; details: Homo sapiens
[8] = test system: COc1cc(/C=C2/C(=O)N(c3ccc(Cl)cc3)N=C2C)ccc1OC(C)=O; test: as §1; details: Homo sapiens
[9] = test system: COc1ccc(/C=C2/C(=O)N(c3ccc(Cl)cc3)N=C2C)c(Cl)c1OC; test: as §1; details: Homo sapiens
[10] = test system: COc1ccc(/C=C2/C(=O)N(c3ccc(Cl)cc3)N=C2C)cc1Br; test: as §1; details: Homo sapiens
[11] = test system: CC1=NN(c2ccc(Cl)cc2)C(=O)/C1=C/c1cc(Cl)cc(Cl)c1O; test: (§2) Mixed-type inhibition of alpha-amylase (unknown origin) assessed as Km for substrate using p-nitrophenylR-D-maltoside as substrate incubated for 30 mins at 1 min time interval; details: Homo sapiens
[12] = test system: CC1=NN(c2ccc(Cl)cc2)C(=O)/C1=C/c1cc(F)ccc1Br; test: as §2; details: Homo sapiens
[13] = test system: CC1=NN(c2ccc(Cl)cc2)C(=O)/C1=C/c1ccc(Br)cc1; test: as §2; details: Homo sapiens
[14] = test system: COc1cc(/C=C2/C(=O)N(c3ccc(Cl)cc3)N=C2C)c(OC)cc1Br; test: as §2; details: Homo sapiens
[15] = test system: COc1cc(/C=C2/C(=O)N(c3ccc(Cl)cc3)N=C2C)cc(OC)c1Br; test: as §2; details: Homo sapiens
[16] = test system: COc1cc(/C=C2/C(=O)N(c3ccc(Cl)cc3)N=C2C)ccc1OC(C)=O; test: as §2; details: Homo sapiens
[17] = test system: COc1ccc(/C=C2/C(=O)N(c3ccc(Cl)cc3)N=C2C)c(Cl)c1OC; test: as §2; details: Homo sapiens
[18] = test system: COc1ccc(/C=C2/C(=O)N(c3ccc(Cl)cc3)N=C2C)cc1Br; test: as §2; details: Homo sapiens

Row | IC50 (Alpha amylase [1]) | Ki (Alpha amylase [2]) | Compound | further results
1 | 2210 nM | – | COc1cc(/C=C2/C(=O)N(c3ccc(Cl)cc3)N=C2C)cc(OC)c1 | –
2 | 1680 nM | 3240 nM | COc1cc(/C=C2/C(=O)N(c3ccc(Cl)cc3)N=C2C)cc(OC)c1Br | –
3 | 2100 nM | – | COc1ccc(/C=C2/C(=O)N(c3ccc(Cl)cc3)N=C2C)c(OC)c1OC | –
4 | 2130 nM | – | COc1ccc(OC)c(/C=C2/C(=O)N(c3ccc(Cl)cc3)N=C2C)c1 | –
5 | 1610 nM | 4260 nM | CC1=NN(c2ccc(Cl)cc2)C(=O)/C1=C/c1cc(Cl)cc(Cl)c1O | –
6 | 1940 nM | 2980 nM | COc1cc(/C=C2/C(=O)N(c3ccc(Cl)cc3)N=C2C)ccc1OC(C)=O | –
7 | 2380 nM | – | CC1=NN(c2ccc(Cl)cc2)C(=O)/C1=C/c1ccc([N+](=O)[O-])cc1 | –
8 | 1860 nM | 3120 nM | COc1cc(/C=C2/C(=O)N(c3ccc(Cl)cc3)N=C2C)c(OC)cc1Br | –
9 | 2190 nM | – | COc1cc(/C=C2/C(=O)N(c3ccc(Cl)cc3)N=C2C)cc(OC)c1OC | –
10 | 1970 nM | 3540 nM | COc1ccc(/C=C2/C(=O)N(c3ccc(Cl)cc3)N=C2C)c(Cl)c1OC | –
11 | 2020 nM | – | COc1ccccc1/C=C1/C(=O)N(c2ccc(Cl)cc2)N=C1C | –

More lines, now with the values behind:

Row | Compound | IC50 (Alpha amylase [1]) | Ki (Alpha amylase [2]) | further results
12 | COc1ccc(/C=C2/C(=O)N(c3ccc(Cl)cc3)N=C2C)cc1Br | 1920 nM | 3840 nM | –
13 | Alpha amylase (Homo sapiens) (from UniProt P0DUB6) | – | – | Vmax [3]: 79.7 µM/min; Vmax [4]: 71.2 µM/min; Vmax [5]: 73.4 µM/min; Vmax [6]: 71.4 µM/min; Vmax [7]: 65.2 µM/min; Vmax [8]: 70.5 µM/min; Vmax [9]: 70.6 µM/min; Vmax [10]: 68.3 µM/min; Km [11]: 3.4 mM; Km [12]: 3.11 mM; Km [13]: 3.26 mM; Km [14]: 3.04 mM; Km [15]: 2.92 mM; Km [16]: 2.9 mM; Km [17]: 3.14 mM; Km [18]: 2.86 mM
14 | COc1ccc(/C=C2/C(=O)N(c3ccc(Cl)cc3)N=C2C)c(OC)c1 | 2010 nM | – | –
15 | CC1=NN(c2ccc(Cl)cc2)C(=O)/C1=C/c1cc(F)ccc1Br | 1930 nM | 3420 nM | –
16 | COc1cc(/C=C2/C(=O)N(c3ccc(Cl)cc3)N=C2C)ccc1OCc1ccccc1 | 2330 nM | – | –
17 | CC1=NN(c2ccc(Cl)cc2)C(=O)/C1=C/c1ccc(Br)cc1 | 1920 nM | 3840 nM | –
18 | CC1=NN(c2ccc(Cl)cc2)C(=O)/C1=C/c1c[nH]c2ccccc12 | 2160 nM | – | –
19 | COc1ccc(/C=C2/C(=O)N(c3ccc(Cl)cc3)N=C2C)cc1OC | 2030 nM | – | –
